Assay results reported in publication PMC6269887, “Novel Substituted Heteroaromatic Piperazine and Piperidine Derivatives as Inhibitors of Human Enterovirus 71 and Coxsackievirus A16” (Molecules, 2013).
Several values for one entry are separate records, joined by “and”; a condition that tells them apart may be missing. Equal entries are not always repeated. Where two headings read alike, the source gives them in different places.

Key:
EV71 [1] = assay: Neutralization test: inhibition of EV71-induced CPE on Vero cells; assay type: cell-based, Enterovirus 71 (Shenzhen 98, shzh01-8); conditions: for IC50: CPE on Vero cells, 100 TCID50, Reed-Muench; for EV71 SI: selectivity index
Description: (§1) The anti-EV71 activity, anti-CVA16 activity, and cytotoxicity of the compounds on the EV71 test strain (Shenzhen 98, shzh01-8) and CVA16 (laboratory viral culture) were evaluated by using cell culture cytopathic effect assays.
(§2) This assay measured the ability of the test compounds to inhibit the CPE induced by EV71 and CVA16 on Vero cells. The 96-well tissue culture plates were seeded with 20,000 Vero cells/mL. The plates were incubated for 24 h at 37 °C. The virus (100 TCID50) mixed with different concentrations of the test compounds was added to the cells, which were incubated at 37 °C for 2 h. After adsorption, the infected cells were overlaid with 50 μL of Dulbecco’s modified Eagle’s medium with 5% fetal bovine serum, and 2% DMSO. […] All assays were performed in triplicate.

CVA16 = assay: Neutralization test: inhibition of CVA16-induced CPE on Vero cells; assay type: cell-based, Coxsackievirus A16 (laboratory viral culture); conditions: for IC50: CPE on Vero cells, 100 TCID50, Reed-Muench; for CVA16 SI: selectivity index
Description: as §1, §2

Vero cells = assay: Cytotoxicity assay on Vero cells; assay type: cell-based; conditions: for TC50: 96 h, concentration reducing cell viability to 50%
Description: The Vero cells treated with the test compounds were incubated at 37 °C for 96 h. After incubation, the cells were harvested and counted.

EV71 [2] = system: EV71; set-up: method as in PMID 23519203; conditions: pirodavir; cited from earlier work
[3] = set-up: method as in PMID 23519203; conditions: pirodavir; cited from earlier work

Compound | IC50 (EV71 [1]) [µM] | IC50 (EV71 [1]; Enterovirus A, EV71, Vero) [µM] | IC50 (CVA16) [µM] | IC50 (CVA16; Enterovirus A, CVA16, Vero) [µM] | melting point [°C] | EV71 SI (EV71 [1]) | CVA16 SI (CVA16) | TC0 (Vero cells) | TC50 (Vero cells) | IC50 (EV71 [2]) [µM] | SI (EV71 [2]) | TC50 [3] [µM]
CC(C)c1ccc(OCCCCCCN2CCN(c3nccs3)CC2)cc1.Cl [Compound 8e, 2-(4-(6-(4-Isopropylphenoxy)hexyl)piperazin-1-yl)thiazole hydrochloride] | 4.3 | 4.28 | 1.2 ± 0.5 | 1.24 | 135 to 137 | 10.1 | 34.8 | 6.8 ± 0.8 µM | 43.08 µM and 43.1 ± 4.7 µM | – | – | –
CCOC(=O)c1ccc(OCCC2CCN(c3ccc(C)nn3)CC2)cc1 [pirodavir] | – | – | – | – | – | – | – | – | – | 1.2 ± 0.2 | 25 | 31 ± 2.2
CCOc1ccc(OCCCCCN2CCN(c3nccs3)CC2)cc1 [Compound 8b, 2-(4-(5-(4-Ethoxyphenoxy)pentyl)piperazin-1-yl)thiazole] | – | 21 ± 1.2 | – | 5.3 ± 0.3 | 79 to 81 | 3.2 | 12.7 | 33.3 ± 3.9 µM | 66.6 ± 1.0 µM | – | – | –
COc1ccc(OCCCCCN2CCN(c3nccs3)CC2)cc1 [Compound 8a, 2-(4-(5-(4-Methoxyphenoxy)pentyl)piperazin-1-yl)thiazole] | – | 100 ± 9 | – | 69.2 ± 5.5 | – | 2.8 | 4.0 | 138 ± 9.6 µM | 277 ± 2.2 µM | – | – | –
CCOc1ccc(OCCCCCCN2CCN(c3nccs3)CC2)cc1.Cl [Compound 8c, 2-(4-(6-(4-Ethoxyphenoxy)hexyl)piperazin-1-yl)thiazole hydrochloride] | – | 4.3 ± 0.1 | – | 6.8 ± 0.4 | 222 to 224 | 12.7 | 8.0 | 6.8 ± 0.1 µM | 54.1 ± 8.1 µM | – | – | –
CCc1ccc(OCCCCCCN2CCN(c3nccs3)CC2)cc1.Cl [Compound 8d, 2-(4-(6-(4-Ethylphenoxy)hexyl)piperazin-1-yl)thiazole hydrochloride] | – | 4.4 ± 0.3 | – | 14 ± 0.5 | 240 to 242 | 12.7 | 4.0 | 28.0 ± 2.5 µM | 56.0 ± 3.3 µM | – | – | –
CC(C)(C)c1ccc(OCCCCCCN2CCN(c3nccs3)CC2)cc1 [Compound 8f, 2-(4-(6-(4-tert-Butylphenoxy)hexyl)piperazin-1-yl)thiazole] | – | 3.9 ± 0.1 | – | 7.8 ± 0.6 | 30 to 32 | 4.0 | 2.0 | 7.8 ± 0.4 µM | 15.6 ± 0.3 µM | – | – | –

More lines, main results first:

IC50 (EV71 [1]) [µM] | IC50 (EV71 [1]; Enterovirus A, EV71, Vero) [µM] | IC50 (CVA16) [µM] | IC50 (CVA16; Enterovirus A, CVA16, Vero) [µM] | melting point [°C] | Compound | EV71 SI (EV71 [1]) | CVA16 SI (CVA16) | TC0 (Vero cells) | TC50 (Vero cells) | IC50 (EV71 [2]) [µM] | SI (EV71 [2]) | TC50 [3] [µM]
– | 21.6 ± 1.4 | > 29.7 | > 29.7 | – | Clc1cc(N2CCN(CCOc3ccc(-n4cnnc4)cc3)CC2)c(Cl)nn1 [Compound 9b] | 8.7 | – | 29.74 µM and 29.7 ± 2.2 µM | 189 ± 17.3 µM | – | – | –
– | 1.2 | – | 1.4 ± 0.1 | – | CCCCc1ccc(OCCN2CCN(c3cc(Cl)nnc3Cl)CC2)cc1 [Compound 9a] | 16.1 | 13.8 | 7.7 ± 0.3 µM | 19.2 ± 0.7 µM | – | – | –
– | > 31.5 | – | 10.8 ± 0.3 | – | CCOc1ccc(OCCN2CCN(c3cc(Cl)nnc3Cl)CC2)cc1 [Compound 9c] | – | 5.8 | 31.5 ± 2.1 µM | 62.9 ± 2.4 µM | – | – | –
– | 25.4 ± 1.7 | – | 16 ± 0.9 | – | CCOC(=O)c1ccc(OCCC2CCN(c3ccnnc3Cl)CC2)nc1 [Compound 9f] | >20.2 | >32.0 | 128 ± 9.5 µM | >512 µM | – | – | –
– | > 31.5 | – | 22.1 ± 1.1 | – | COC(=O)c1ccc(OCCC2CCN(c3cc(Cl)nnc3Cl)CC2)cc1 [Compound 9d] | – | 8.7 | 30.5 ± 2.0 µM | 193 ± 19.3 µM | – | – | –
